1 compound from patent US11730746B2, “17beta-heterocyclyl-digitalis like compounds for the treatment of heart failure” (priority 2018, dated 2023) can be followed below.

Several values for one entry are separate records, joined by “and”; a condition that tells them apart may be missing. Equal entries are not always repeated.

One data set concerns guinea pig. Kind of data set: Haemodynamics: inotropic and lethal dose in guinea pig. The data set is classed as in vivo. The following applies: for E max % increase in dP/dtmax: 90 min; for ED max: cumulative dose. The procedure:
Guinea-pigs (400-450 g) were anaesthetized with urethane (1.5 g/kg ip). A microtip pressure transducer was introduced into the left ventricle through the right carotid artery to measure ventricular pressure (LVP); the transducer was coupled with a transducer amplifier. Recordings were fed to a polygraph and analyzed. A polythene cannula was inserted into a jugular vein for drug infusion. After a stabilization period, the test substance was injected at the rate of 0.16 ml/min for 90 min (Micheletti R et al. J Pharmacol Exp Ther 2002; 303:592-600).
The following parameters were obtained: heart rate (HR), left ventricular pressure (LVP), maximal velocity of pressure rise (+dP/dtmax) and decay (−dP/dtmax), ECG. For inotropy, the time elapsed until +dP/dtmax increased by 80% was identified in order to determine the ED80 (dose increasing basal +dP/dtmax by 80%). The time to the maximum increase in +dP/dtmax was also identified to determine the maximum effective dose, EDmax. Lusitropy was characterized by the dose inducing the maximum decrease in −dP/dtmax, (EDmax). As indexes of toxicity, the dose administered until the onset of arrhythmias and the dose inducing death (LD) were calculated. The safety ratio for the tested compound was also calculated as the ratio between LD and ED80.

Another data set concerns the target T1, Adenosine A2A (Homo sapiens, UniProt P29274).
T1 construct: Eurofins 200610; host or cells: crude membrane preparation
Kind of data set: Receptor binding 200610. The protocol:
(§1) Radioligand binding to a panel of receptors was carried out by Eurofins on crude membrane preparations according to published procedures and by using appropriate reference standard (Eurofins, CVie 101 compound code PT #1207859, study #AB76416, quote #68407-1, for Cvie Therapeutics Limited, Taiwan (R.OC.) on Mar. 5, 2017). CVie 101 was tested at the concentration of 10 μM. No significant interaction was documented, except for Sodium Channel, site 2 from rat (cat #279510), where a significant response (≥50%) was noted (Table 7).

In a further data set the target is T2, Dopamine D1 (Homo sapiens, UniProt P21728).
T2 construct: Eurofins 219500; host or cells: crude membrane preparation
Kind of data set: Receptor binding 219500. The protocol: as §1

For another data set, the target named is T3, Dopamine D3 (Homo sapiens, UniProt P35462).
T3 construct: Eurofins 219800; host or cells: crude membrane preparation
Kind of data set: Receptor binding 219800. The protocol: as §1

The next data set has as its system Nicotinic Acetylcholine. Nature of the data set: Receptor binding 258590. Further details: species or system human. As to conditions: 10 μM. The procedure:
as §1

For another data set, the target named is T4, hERG potassium channel (Homo sapiens, UniProt Q12809).
T4 construct: Eurofins (contract assay) 265900
Nature of the data set: Receptor binding 265900. The following applies: crude membrane preparations. The procedure: as §1

A further data set has as its target T5, Sigma σ1 (Homo sapiens, UniProt Q99720).
T5 construct: Eurofins (contract assay) 278110
Kind of data set: Receptor binding 278110. The procedure:
as §1

One may read the inhibition as the change of the read-out against control, counted positive when it falls.

T5 sequence (Q99720 whole entry): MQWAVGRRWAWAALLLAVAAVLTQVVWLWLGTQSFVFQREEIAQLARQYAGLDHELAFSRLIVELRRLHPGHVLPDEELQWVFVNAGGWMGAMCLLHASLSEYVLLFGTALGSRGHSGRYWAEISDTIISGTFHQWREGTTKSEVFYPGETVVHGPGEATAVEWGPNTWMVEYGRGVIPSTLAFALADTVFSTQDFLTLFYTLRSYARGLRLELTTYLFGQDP
T2 sequence (P21728 whole entry): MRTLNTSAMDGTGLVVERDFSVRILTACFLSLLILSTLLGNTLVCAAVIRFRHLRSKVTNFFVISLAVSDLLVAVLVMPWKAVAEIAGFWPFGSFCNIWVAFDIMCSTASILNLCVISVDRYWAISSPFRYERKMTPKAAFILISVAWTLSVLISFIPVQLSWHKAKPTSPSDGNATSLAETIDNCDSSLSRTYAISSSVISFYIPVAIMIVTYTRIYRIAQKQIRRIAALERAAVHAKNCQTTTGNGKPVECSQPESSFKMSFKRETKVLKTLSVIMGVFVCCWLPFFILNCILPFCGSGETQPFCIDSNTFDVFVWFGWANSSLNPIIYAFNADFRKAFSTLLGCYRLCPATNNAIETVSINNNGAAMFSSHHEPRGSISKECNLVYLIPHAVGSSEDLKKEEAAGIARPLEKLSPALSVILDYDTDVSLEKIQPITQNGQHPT
T1 sequence (P29274 whole entry): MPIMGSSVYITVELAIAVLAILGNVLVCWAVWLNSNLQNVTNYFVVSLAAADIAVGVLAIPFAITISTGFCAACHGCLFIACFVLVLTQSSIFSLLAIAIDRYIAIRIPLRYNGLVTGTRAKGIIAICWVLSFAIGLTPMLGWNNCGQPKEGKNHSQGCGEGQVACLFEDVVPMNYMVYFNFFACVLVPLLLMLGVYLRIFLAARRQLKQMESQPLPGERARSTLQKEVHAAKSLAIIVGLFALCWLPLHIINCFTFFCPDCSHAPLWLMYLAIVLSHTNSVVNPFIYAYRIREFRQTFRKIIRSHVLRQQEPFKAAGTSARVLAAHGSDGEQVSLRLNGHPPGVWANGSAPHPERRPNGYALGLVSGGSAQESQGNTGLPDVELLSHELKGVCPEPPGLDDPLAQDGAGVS
T4 sequence (Q12809 whole entry): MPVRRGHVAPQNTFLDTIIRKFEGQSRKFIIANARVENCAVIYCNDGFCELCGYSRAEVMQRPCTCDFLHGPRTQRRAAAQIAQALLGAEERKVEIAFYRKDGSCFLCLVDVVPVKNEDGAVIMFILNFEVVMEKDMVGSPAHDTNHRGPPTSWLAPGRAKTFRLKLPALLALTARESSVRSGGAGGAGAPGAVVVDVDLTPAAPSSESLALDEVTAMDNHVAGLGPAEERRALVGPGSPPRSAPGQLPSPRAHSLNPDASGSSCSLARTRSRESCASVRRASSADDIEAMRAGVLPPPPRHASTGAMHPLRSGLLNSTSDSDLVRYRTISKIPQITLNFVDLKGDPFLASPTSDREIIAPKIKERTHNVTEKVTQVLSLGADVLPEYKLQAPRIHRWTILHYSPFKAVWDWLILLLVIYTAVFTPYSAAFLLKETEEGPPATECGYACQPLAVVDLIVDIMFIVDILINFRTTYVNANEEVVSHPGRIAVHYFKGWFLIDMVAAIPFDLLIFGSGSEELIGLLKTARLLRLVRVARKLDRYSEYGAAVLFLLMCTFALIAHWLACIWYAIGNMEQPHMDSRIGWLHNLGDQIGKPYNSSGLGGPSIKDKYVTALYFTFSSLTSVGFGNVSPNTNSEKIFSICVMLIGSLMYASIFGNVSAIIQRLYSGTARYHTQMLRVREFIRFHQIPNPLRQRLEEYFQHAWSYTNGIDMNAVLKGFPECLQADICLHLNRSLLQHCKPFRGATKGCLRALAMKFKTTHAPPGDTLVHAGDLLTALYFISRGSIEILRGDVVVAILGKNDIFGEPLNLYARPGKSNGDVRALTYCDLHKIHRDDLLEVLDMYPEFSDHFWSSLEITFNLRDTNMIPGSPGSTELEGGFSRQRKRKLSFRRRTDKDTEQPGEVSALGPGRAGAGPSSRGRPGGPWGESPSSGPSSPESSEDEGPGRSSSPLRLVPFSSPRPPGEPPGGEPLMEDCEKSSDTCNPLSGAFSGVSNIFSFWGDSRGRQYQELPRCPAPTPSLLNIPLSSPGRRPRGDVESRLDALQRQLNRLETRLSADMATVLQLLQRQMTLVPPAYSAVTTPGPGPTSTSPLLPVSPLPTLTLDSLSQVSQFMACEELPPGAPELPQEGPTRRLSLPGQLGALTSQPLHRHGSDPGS
T3 sequence (P35462 whole entry): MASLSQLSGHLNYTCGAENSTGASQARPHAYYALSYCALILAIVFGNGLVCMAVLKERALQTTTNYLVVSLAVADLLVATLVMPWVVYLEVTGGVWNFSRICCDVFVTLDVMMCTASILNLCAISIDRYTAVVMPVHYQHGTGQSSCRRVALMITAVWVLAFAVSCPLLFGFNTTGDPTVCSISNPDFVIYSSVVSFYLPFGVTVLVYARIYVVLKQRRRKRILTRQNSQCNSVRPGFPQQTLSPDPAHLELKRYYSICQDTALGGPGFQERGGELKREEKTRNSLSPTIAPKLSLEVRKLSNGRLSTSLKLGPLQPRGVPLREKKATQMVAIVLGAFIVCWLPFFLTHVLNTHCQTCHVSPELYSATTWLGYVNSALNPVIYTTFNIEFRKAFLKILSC

Consider `C[C@]12CC[C@H](O)C[C@H]1CCC1C2CC[C@]2(C)[C@@H](c3c[nH]cn3)CC[C@]12O` (stereo partly drawn) [CVie 101, 3β-hydroxy-5β-10β-methyl-13β-methyl-14β-hydroxy-17β-(imidazol-4-yl)androstane], for which the Dead/treated number in the data set with guinea pig (i.v. infusion 0.2 mg/kg/min) was 1/8; in the data set with guinea pig (i.v. infusion 0.5 mg/kg/min), 8/8. The ED80 with guinea pig (i.v. infusion 0.2 mg/kg/min) was 1.6 mg/kg and 1.60 mg/kg; in the data set on guinea pig (i.v. infusion 0.5 mg/kg/min), 2.74 mg/kg. Also, the Lethal dose is on record as above 18 mg/kg with guinea pig (i.v. infusion 0.2 mg/kg/min) and 28.2 mg/kg with guinea pig (i.v. infusion 0.5 mg/kg/min). Besides, the “E max % increase in dP/dtmax” value in the data set on guinea pig (i.v. infusion 0.2 mg/kg/min) is 163.6%; with guinea pig (i.v. infusion 0.5 mg/kg/min) it was 216.8%. Also, the ED max with guinea pig (i.v. infusion 0.2 mg/kg/min) was 3.73 mg/kg; in the data set on guinea pig (i.v. infusion 0.5 mg/kg/min), 5.08 mg/kg. Moreover, the LD/ED80 with guinea pig (i.v. infusion 0.5 mg/kg/min, safety ratio) is reported as 11.32. Moreover, the inhibition at 10 µM at Adenosine A2A is 0%; at Dopamine D1, -5%; on Dopamine D3, 7%; at hERG potassium channel, 4%; at Sigma σ1 it was 23%. Besides, the “% inhib” value in the data set on Nicotinic Acetylcholine came out at 2%.
